Laboratory results: patent publication US20230390224A1, “UNITARY ORAL DOSAGE FORM IN BASE OF SPHERICAL AND/OR SPHEROIDAL SHAPED PARTICLES” (ATOMIC PHARMACEUTICS INC., priority 2022, published 2023)
Where a name gives a salt, the structure may show the parent alone. Each block holds one molecule with its values, some of them ahead of it.

Tests used:
[1] = Release of API from gel particles into liquid medium B (spectrophotometry; Weibull Fmax, Higuchi release rate); type: physicochemical; conditions: liquid medium B and liquid medium C
Method: To the measurements of APIs release, the APIs concentrations were determined spectrophotometrically, by sampling in a Thermo Spectronic Genesys 10 UV equipment. Each of the measurements were performed in duplicate or more trials. The wavelengths occupied will depend on each API tested (for example, 243 nm for acetaminophen, 230 nm for naproxen).
To evaluate each of the experiments carried out and adjust the concentration points during the release experiments, various methods were used: zero order models, first order, Higuchi, Hixson-Crowell, square root of the mass, root 3/2 of the mass, Weibull and Korsmeyer-Peppas. The model that best fits the concentration points during the release experiments was a Weibull model (Vasiliki Papadopoulou, Kosmas Kosmidis, Marilena Vlachou, Panos Macheras, “On the use of the Weibull function for the discernment of drug release mechanisms,” International Journal of Pharmaceutics 309 (2006) 44-50).
An example of the surprising effects of modification of these formulation design factors is shown below for the same API (acetaminophen or paracetamol), as an example of the different effects that can be achieved using the same amount of API in all formulations (120 mg of total acetaminophen in each example). […]

[2] = cited from earlier work
[3] = cited from earlier work; remark: listed apart in the source

release of API into the aqueous medium [1]: no release
Compound: Cc1cccc(Nc2ccccc2C(=O)O)c1C [Mefenamic acid, mefenamic acid]
log P [2]: 4.2 | solubility in oily media / oil phase [3]: not soluble | solubility in water [3]: very poorly soluble

Compound: CC(=O)Oc1ccccc1C(=O)O [Acetyl salicylic acid, acetyl salicylic acid]
solubility in oily media / oil phase [3]: slightly soluble | solubility in water [3]: soluble

Compound: C=C(C)[C@@H]1CCC(C)=C[C@H]1c1c(O)cc(CCCCC)cc1O [CBD, cannabinoidiol]
log P [2]: 7.75 | solubility in oily media / oil phase [3]: highly soluble | solubility in water [3]: very slightly soluble

Compound: CC(=O)Nc1ccc(O)cc1 [Acetaminophen, acetaminophen]
log P [2]: 4.6 | solubility in oily media / oil phase [3]: poorly soluble | solubility in water [3]: poorly soluble

Compound: CN(C)CCC(c1ccc(Cl)cc1)c1ccccn1 (stereo not shown) [Chlorphenamine maleate, chlorphenamine maleate]
log P [2]: 3.7
